Assay results taken from paper doi:10.1101/2025.03.03.641126v1 (bioRxiv, 2025).

Test system: Panc354 and MetPO1 cells
Assay: Flow cytometry for CD133 after combination treatment
Format: cell-based, human
Conditions: representative cytometry plot, JM#21 10μM, Gem 1μM

Nc1ccn([C@@H]2O[C@H](CO)[C@@H](O)C2(F)F)c(=O)n1 [gemcitabine]
CD133 - PE positive cells: 14.5%
